From patent publication US7491849B2, “Oligoamine compounds and derivatives thereof for cancer therapy” (priority 2001, dated 2009)

Assays:
Calf-thymus DNA = Calf-thymus DNA aggregation (absorbance at 320 nm); format: biochemical; conditions: 50 mM NaCl, 1 mM Na-cacodylate pH 7.0
Method: Calf-thymus DNA aggregation by spermine and oligoamines.
Test for DNA Aggregation: DNA aggregation was studied using a Perkin-Elmer Lambda 25 UV/visible spectrophotometer connected to a PTP 6 heating unit using a previously published procedure (see Basu, H S and Marton, L J, “The interaction of spermine and pentamines with DNA,” Biochemical Journal 244:243-246 (1987)). Aggregation was determined in 50 mM NaCl, 1 mM Na-cacodylate pH 7.0 buffer by observing the increase in DNA absorbance (approximately 0.5 A260 units) at 320 nm.

LnCap = test: MTT assay, tumor cell growth, LnCap; format: cell-based; conditions: 6 days incubation, read-out: ID50 (μM) values for Human Tumor Cell Lines, LnCap
Method: (§1) Effect of Saturated Oligoamines on Human Prostate Tumor Cell Growth by the MTT assay. Saturated oligoamines inhibited prostate cancer cell growth in vitro. DU-145 cells were most sensitive and PC-3 cells were less sensitive to the effects of oligoamines. In general, ID50 values of less than 0.5 μM were obtained (Table 2). Even though the PC-3 cells were relatively more resistant to the oligoamines, at a 5 μM concentration the oligoamines reduced the cell number to less than 1% of the control on day 6 of incubation. Tissue cultures and the MTT assay were performed as follows.
(§2) Tissue Culture. Cells were seeded into 75 cm^2 culture flasks with 15 ml of Eagle's minimal essential medium supplemented with 10% fetal calf serum and nonessential amino acids. The flasks were incubated in a humidified 95% air/5% CO2 atmosphere. The cells were grown for at least 24 h to ensure that they are in the log phase of growth and then they were treated with the oligoamines. Cells were harvested by treatment for 5 min with STV (saline A, 0.05% trypsin, 0.02% EDTA) at 37° C. The flasks were rapped on the lab bench, pipetted several times and aliquots of cell suspension were withdrawn and counted using a Coulter particle counter that has been standardized for counting each cell line using a hemacytometer.
(§3) MTT Assay: Trypsinized cell suspensions were diluted to seed 80 μl suspensions containing 500 cells in each well of a 96 well Corning microtiter plate and incubated overnight at 37° C. in a humidified incubator in 5% CO2. 20 μl of appropriately diluted stock solution of each drug were added to the middle 8 columns of cell suspension in the microtiter plates. Each drug concentration was run in quadruplicate. Outer columns of the plates were used for buffer controls. Cells were incubated with the drug for 6 days at 37° C. in 5% CO2/H2O atmosphere. 25 μl of 5 mg/ml solution of 3-(4,5-dimethylthiazol-2-yl)-2,5-diphenyl tetrazolium bromide (MTT) were added to each well and incubated for 4 hours at 37° C. in 5% CO2/H2O incubator. Cells were lysed by incubating overnight with 100 μl lysis buffer (500 ml of the lysis buffer contains: 100 g lauryl sulfate (SDS), 250 ml of N,N-dimethylformamide, and 2 ml of glacial acetic acid, made up to volume with water; pH 4.8).
(§4) The color was monitored at room temperature at 570 nm in a E-max Precision Microplate Reader (Molecular Devices Corporation, Sunnyvale, Calif.) and data was analyzed using cell survival software supplied by Molecular Devices Corporation.

DU145 = test: MTT assay, tumor cell growth, DU145; format: cell-based; conditions: 6 days incubation, read-out: ID50 (μM) values for Human Tumor Cell Lines, DU145
Method: as §1, §2, §3, §4

DuPro = test: MTT assay, tumor cell growth, DuPro; format: cell-based; conditions: 6 days incubation, read-out: ID50 (μM) values for Human Tumor Cell Lines, DuPro
Method: as §1, §2, §3, §4

PC-3 = test: MTT assay, tumor cell growth, PC-3; format: cell-based; conditions: 6 days incubation, read-out: ID50 (μM) values for Human Tumor Cell Lines, PC-3
Method: as §1, §2, §3, §4

DuPro Cells = test: Cellular polyamine and oligoamine levels, DuPro cells (HPLC); format: cell-based
Method: (§5) Cellular Uptake of Oligoamines. There was considerable uptake of oligoamines by the cancer cell lines; see Table 3A (DuPro cells) and Table 3B (PC-3 cells). […] While not wishing to be limited by any particular theory of operation, the cytotoxicity is likely related to their strong aggregation effect on DNA.
(§6) Polyamine Analysis. An appropriate number of cells were taken from harvested samples and centrifuged at 1000 rpm at 4° C. for 5 min. The cells were washed twice with chilled Dulbecco's isotonic phosphate buffer (pH 7.4) by centrifugation at 1000 rpm at 4° C. and resuspended in the same buffer. After the final centrifugation, the supernatant was decanted, and […] of 8% sulfosalycilic acid was added to the cell pellet. The cells were sonicated, and the mixture was kept at 4° C. for at least 1 h. After centrifugation at 8000 g for 5 min, the supernatant was removed for analysis. An appropriate volume (50-100 μl) was fluorescence-labeled by derivatizing with dansyl chloride. Labeled polyamines were loaded onto a C-18 high-performance liquid chromatography column and separated by gradient elution with acetonitrile/water at 50° C. Peaks were detected and quantitated using Shimadzu HPLC fluorescence monitor coupled with a Spectra-Physics peak integrator. Because polyamine levels vary with environmental conditions, control cultures were sampled for each experiment.

PC-3 Cells = test: Cellular polyamine and oligoamine levels, PC-3 cells (HPLC); format: cell-based
Method: as §5, §6

[1] = Day 4 of Treatment, analog conc. 0.8 μM
[2] = Day 4 of Treatment, analog conc. 1.6 μM
[3] = Day 6 of Treatment, analog conc. 0.8 μM
[4] = PC-3, Day 4 of Treatment, analog conc. 1 μM
[5] = PC-3, Day 4 of Treatment, analog conc. 5 μM
[6] = PC-3, Day 6 of Treatment, analog conc. 1 μM

IC50 (LnCap) [µM]	IC50 (DU145) [µM]	IC50 (DuPro) [µM]	IC50 (PC-3) [µM]	Polyamine levels, Analog (cellular oligoamine level) (DuPro Cells; [1]) [nmoles/10^6 cells]	Polyamine levels, Analog (cellular oligoamine level) (DuPro Cells; [2]) [nmoles/10^6 cells]	Polyamine levels, Analog (cellular oligoamine level) (DuPro Cells; [3]) [nmoles/10^6 cells]	Polyamine levels, Analog (cellular oligoamine level) (PC-3 Cells; [4]) [nmoles/10^6 cells]	Polyamine levels, Analog (cellular oligoamine level) (PC-3 Cells; [5]) [nmoles/10^6 cells]	Polyamine levels, Analog (cellular oligoamine level) (PC-3 Cells; [6]) [nmoles/10^6 cells]	Structure (SMILES)	Conc. (μM) at the start of DNA Aggregation (Calf-thymus DNA) [µM]	Polyamine levels, Put (DuPro Cells; [1]) [nmoles/10^6 cells]	Polyamine levels, Spm (DuPro Cells; [1]) [nmoles/10^6 cells]	Polyamine levels, Put (DuPro Cells; [2]) [nmoles/10^6 cells]	Polyamine levels, Put (DuPro Cells; [3]) [nmoles/10^6 cells]	other results
										NCCCNCCCCNCCCN [Spermine, reference compound]	88.5					
0.32	0.24	0.35	0.5	0.145	0.150	0.023	0.055	0.128	0.08	CCNCCCCNCCCCNCCCCNCCCCNCCCCNCCCCNCCCCNCCCCNCCCCNCCCCNCCCCNCCCCNCCCCNCC.Cl.Cl.Cl.Cl.Cl.Cl.Cl.Cl.Cl.Cl.Cl.Cl.Cl.Cl [SL-11175]	2.0	0.157	0.050	0.410	0.155	Polyamine levels, Put (PC-3 Cells; [4]): 0.515 nmoles/10^6 cells; Polyamine levels, Put (PC-3 Cells; [5]): 0.519 nmoles/10^6 cells; Polyamine levels, Put (PC-3 Cells; [6]): 0.76 nmoles/10^6 cells
0.15	0.13	0.55	0.4	0.575	0.775	0.410	0.005	0.011	0.007	CCNCCCCNCCCCNCCCCNCCCCNCCCCNCCCCNCCCCNCC.Cl.Cl.Cl.Cl.Cl.Cl.Cl.Cl [SL-11160]	4.5	0.430	0.222	0.412	0.675	Polyamine levels, Spd (DuPro Cells; [1]): 0.897 nmoles/10^6 cells; Polyamine levels, Spm (DuPro Cells; [2]): 0.195 nmoles/10^6 cells; Polyamine levels, Spd (DuPro Cells; [3]): 1.470 nmoles/10^6 cells; Polyamine levels, Spm (DuPro Cells; [3]): 0.290 nmoles/10^6 cells; Polyamine levels, Spd (PC-3 Cells; [4]): 0.097 nmoles/10^6 cells; Polyamine levels, Spm (PC-3 Cells; [4]): 0.502 nmoles/10^6 cells; Polyamine levels, Spd (PC-3 Cells; [5]): 0.077 nmoles/10^6 cells; Polyamine levels, Spm (PC-3 Cells; [5]): 0.525 nmoles/10^6 cells; Polyamine levels, Spd (PC-3 Cells; [6]): 0.085 nmoles/10^6 cells; Polyamine levels, Spm (PC-3 Cells; [6]): 0.180 nmoles/10^6 cells
